Data: the NIST ThermoML archive (doi:10.1007/s10765-006-0033-6)
Numbers after ± are expanded uncertainties.

Test: compressibility factor (dimensionless); xn = mol fraction of the nth substance listed
Details: Gas, Other PVT measurement

[N-]=[N+]=O [nitrous oxide] + FCF
Details | compressibility factor
303.23 K, 131 kPa, x1 = 0.2958 | 0.9882 ± 0.0005
303.23 K, 133.7 kPa, x1 = 0.3826 | 0.9887 ± 0.0005
303.23 K, 194.9 kPa, x1 = 0.2958 | 0.9827 ± 0.0005
303.23 K, 199.1 kPa, x1 = 0.3826 | 0.9838 ± 0.0005
303.23 K, 213.1 kPa, x1 = 0.7326 | 0.9893 ± 0.0005
303.23 K, 235.1 kPa, x1 = 0.6589 | 0.9847 ± 0.0005
303.23 K, 289.2 kPa, x1 = 0.2958 | 0.9746 ± 0.0005
303.23 K, 295.5 kPa, x1 = 0.3826 | 0.9761 ± 0.0005
303.23 K, 316.4 kPa, x1 = 0.7326 | 0.9819 ± 0.0005
303.23 K, 349.2 kPa, x1 = 0.6589 | 0.9776 ± 0.0005
303.23 K, 356.8 kPa, x1 = 0.448 | 0.9708 ± 0.0005
303.23 K, 427.1 kPa, x1 = 0.2958 | 0.9622 ± 0.0005
303.23 K, 436.8 kPa, x1 = 0.3826 | 0.9645 ± 0.0005
303.23 K, 468.8 kPa, x1 = 0.7326 | 0.9723 ± 0.0005
303.23 K, 516.7 kPa, x1 = 0.6589 | 0.9669 ± 0.0005
303.23 K, 526.5 kPa, x1 = 0.448 | 0.9574 ± 0.0005
303.23 K, 626.7 kPa, x1 = 0.2958 | 0.9437 ± 0.0005
303.23 K, 641.7 kPa, x1 = 0.3826 | 0.947 ± 0.0005
303.23 K, 691.2 kPa, x1 = 0.7326 | 0.9582 ± 0.0005
303.23 K, 760.2 kPa, x1 = 0.6589 | 0.9509 ± 0.0005
303.23 K, 771.2 kPa, x1 = 0.448 | 0.9375 ± 0.0005
303.23 K, 910.7 kPa, x1 = 0.2958 | 0.9166 ± 0.0005
303.23 K, 933.9 kPa, x1 = 0.3826 | 0.9213 ± 0.0005
303.23 K, 1012.1 kPa, x1 = 0.7326 | 0.9378 ± 0.0005
303.23 K, 1108.8 kPa, x1 = 0.6589 | 0.927 ± 0.0005
303.23 K, 1117.6 kPa, x1 = 0.448 | 0.9081 ± 0.0005
303.23 K, 1303.4 kPa, x1 = 0.2958 | 0.8768 ± 0.0004
303.23 K, 1340.2 kPa, x1 = 0.3826 | 0.8837 ± 0.0004
303.23 K, 1465.6 kPa, x1 = 0.7326 | 0.9077 ± 0.0005
303.23 K, 1593.4 kPa, x1 = 0.448 | 0.8653 ± 0.0004
303.23 K, 1596.2 kPa, x1 = 0.6589 | 0.892 ± 0.0004
303.23 K, 1822 kPa, x1 = 0.2958 | 0.8193 ± 0.0004
303.23 K, 1881.5 kPa, x1 = 0.3826 | 0.8292 ± 0.0004
303.23 K, 2086.1 kPa, x1 = 0.7326 | 0.8636 ± 0.0004
303.23 K, 2214.2 kPa, x1 = 0.448 | 0.8037 ± 0.0004
303.23 K, 2252 kPa, x1 = 0.6589 | 0.8412 ± 0.0004
303.23 K, 2454.7 kPa, x1 = 0.2958 | 0.7378 ± 0.0004
303.23 K, 2551.4 kPa, x1 = 0.3826 | 0.7516 ± 0.0004
303.23 K, 2892.7 kPa, x1 = 0.7326 | 0.8004 ± 0.0004
303.23 K, 2954.5 kPa, x1 = 0.448 | 0.7169 ± 0.0004
303.23 K, 3079.5 kPa, x1 = 0.6589 | 0.7688 ± 0.0004
303.23 K, 3848.9 kPa, x1 = 0.7326 | 0.7119 ± 0.0004
303.23 K, 4005.3 kPa, x1 = 0.6589 | 0.6684 ± 0.0003
323.44 K, 159 kPa, x1 = 0.5714 | 0.9902 ± 0.0005
323.44 K, 237 kPa, x1 = 0.5714 | 0.9864 ± 0.0005
323.44 K, 254.6 kPa, x1 = 0.745 | 0.9868 ± 0.0005
323.44 K, 352.4 kPa, x1 = 0.5714 | 0.9806 ± 0.0005
323.44 K, 378.8 kPa, x1 = 0.745 | 0.9812 ± 0.0005
323.44 K, 522.4 kPa, x1 = 0.5714 | 0.9714 ± 0.0005
323.44 K, 561.8 kPa, x1 = 0.745 | 0.9727 ± 0.0005
323.44 K, 770.4 kPa, x1 = 0.5714 | 0.9577 ± 0.0005
323.44 K, 829.3 kPa, x1 = 0.745 | 0.9598 ± 0.0005
323.44 K, 1128 kPa, x1 = 0.5714 | 0.9372 ± 0.0005
323.44 K, 1215.8 kPa, x1 = 0.745 | 0.9406 ± 0.0005
323.44 K, 1633.3 kPa, x1 = 0.5714 | 0.9071 ± 0.0005
323.44 K, 1764.2 kPa, x1 = 0.745 | 0.9123 ± 0.0005
323.44 K, 2325.6 kPa, x1 = 0.5714 | 0.8633 ± 0.0004
323.44 K, 2519.5 kPa, x1 = 0.745 | 0.8708 ± 0.0004
323.44 K, 3228.5 kPa, x1 = 0.5714 | 0.8011 ± 0.0004
323.44 K, 3513.7 kPa, x1 = 0.745 | 0.8117 ± 0.0004
323.44 K, 4726.6 kPa, x1 = 0.745 | 0.7299 ± 0.0004
323.45 K, 119.4 kPa, x1 = 0.4108 | 0.9909 ± 0.0005
323.45 K, 128.6 kPa, x1 = 0.3236 | 0.9894 ± 0.0005
323.45 K, 141.9 kPa, x1 = 0.2465 | 0.9883 ± 0.0005
323.45 K, 178 kPa, x1 = 0.4108 | 0.9879 ± 0.0005
323.45 K, 191.7 kPa, x1 = 0.3236 | 0.986 ± 0.0005
323.45 K, 211.5 kPa, x1 = 0.2465 | 0.984 ± 0.0005
323.45 K, 265 kPa, x1 = 0.4108 | 0.9831 ± 0.0005
323.45 K, 285.1 kPa, x1 = 0.3236 | 0.9802 ± 0.0005
323.45 K, 314.1 kPa, x1 = 0.2465 | 0.9771 ± 0.0005
323.45 K, 393.4 kPa, x1 = 0.4108 | 0.9754 ± 0.0005
323.45 K, 422.8 kPa, x1 = 0.3236 | 0.9714 ± 0.0005
323.45 K, 464.8 kPa, x1 = 0.2465 | 0.9664 ± 0.0005
323.45 K, 581.5 kPa, x1 = 0.4108 | 0.9636 ± 0.0005
323.45 K, 623.6 kPa, x1 = 0.3236 | 0.9578 ± 0.0005
323.45 K, 683.5 kPa, x1 = 0.2465 | 0.9499 ± 0.0005
323.45 K, 854.1 kPa, x1 = 0.4108 | 0.946 ± 0.0005
323.45 K, 912.9 kPa, x1 = 0.3236 | 0.9372 ± 0.0005
323.45 K, 996.3 kPa, x1 = 0.2465 | 0.9254 ± 0.0005
323.45 K, 1242.3 kPa, x1 = 0.4108 | 0.9198 ± 0.0005
323.45 K, 1321.6 kPa, x1 = 0.3236 | 0.9069 ± 0.0005
323.45 K, 1433.4 kPa, x1 = 0.2465 | 0.8899 ± 0.0004
323.45 K, 1781.4 kPa, x1 = 0.4108 | 0.8816 ± 0.0004
323.45 K, 1881.4 kPa, x1 = 0.3236 | 0.8629 ± 0.0004
323.45 K, 2021.2 kPa, x1 = 0.2465 | 0.8388 ± 0.0004
323.45 K, 2499.7 kPa, x1 = 0.4108 | 0.8269 ± 0.0004
323.45 K, 2610.3 kPa, x1 = 0.3236 | 0.8003 ± 0.0004
343.77 K, 139.1 kPa, x1 = 0.2266 | 0.9898 ± 0.0005
